pIC50: −log10 of the molar value.
Experiments:
Experiment in all cases: Kinase selectivity profile assay
Assay type in all cases: biochemical
SRPK2 = molecular target: T1, SRPK2 (Homo sapiens, UniProt P78362); conditions: 500 nM; relative to DMSO; read-out: Residual enzymatic activity
T1 construct: purchased Reaction Biology Corporation
Outline: (§1)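 Radiometric kinase assay run by a standard protocol. Unbound phosphate was removed by washing filters in phosphoric acid, and product radioactivity gave percent remaining kinase activity versus DMSO vehicle reactions. Run in duplicate.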

CDK1/cyclin A = molecular target: T2, CDK1/cyclin A (Homo sapiens, UniProt P06493); conditions: 500 nM; relative to DMSO; read-out: Residual enzymatic activity
T2 construct: purchased Reaction Biology Corporation
Outline: as §1

STK32B/YANK2 = molecular target: T3, STK32B/YANK2 (Homo sapiens, UniProt Q9NY57); conditions: 500 nM; relative to DMSO; read-out: Residual enzymatic activity
T3 construct: purchased Reaction Biology Corporation
Outline: as §1

NEK3 = molecular target: T4, NEK3 (Homo sapiens, UniProt P51956); conditions: 500 nM; relative to DMSO; read-out: Residual enzymatic activity
T4 construct: purchased Reaction Biology Corporation
Outline: as §1

TAOK1 = molecular target: T5, TAOK1 (Homo sapiens, UniProt Q7L7X3); conditions: 500 nM; relative to DMSO; read-out: Residual enzymatic activity
T5 construct: purchased Reaction Biology Corporation
Outline: as §1

EPHA4 = molecular target: T6, EPHA4 (Homo sapiens, UniProt P54764); conditions: 500 nM, relative to DMSO
T6 construct: purchased Reaction Biology Corporation
Outline: as §1

STK25/YSK1 = molecular target: T7, STK25/YSK1 (Homo sapiens, UniProt O00506); conditions: 500 nM; relative to DMSO; read-out: Residual enzymatic activity
T7 construct: purchased Reaction Biology Corporation
Outline: as §1

PASK = molecular target: T8, PASK (Homo sapiens, UniProt Q96RG2); conditions: 500 nM; relative to DMSO; read-out: Residual enzymatic activity
T8 construct: purchased Reaction Biology Corporation
Outline: as §1

LYN B = molecular target: T9, LYN B (Homo sapiens, UniProt P07948)
T9 construct: purchased Reaction Biology Corporation (assay service)
Outline: as §1

RSK4 = molecular target: T10, RSK4 (Homo sapiens, UniProt Q9UK32); conditions: 500 nM; relative to DMSO; read-out: Residual enzymatic activity
T10 construct: purchased Reaction Biology Corporation
Outline: as §1

NEK4 = molecular target: T11, NEK4 (Homo sapiens, UniProt P51957); conditions: 500 nM; relative to DMSO; read-out: Residual enzymatic activity
T11 construct: purchased Reaction Biology Corporation
Outline: as §1

TRKA = molecular target: T12, TRKA (Homo sapiens, UniProt P04629); conditions: 500 nM; relative to DMSO; read-out: Residual enzymatic activity
T12 construct: purchased Reaction Biology Corporation
Outline: as §1

PDK1/PDPK1 = molecular target: T13, PDK1/PDPK1 (Homo sapiens, UniProt O15530); conditions: 500 nM; relative to DMSO; read-out: Residual enzymatic activity
T13 construct: purchased Reaction Biology Corporation
Outline: as §1

ULK1 = molecular target: T14, ULK1 (Homo sapiens, UniProt O75385); conditions: 500 nM; relative to DMSO; read-out: Residual enzymatic activity
T14 construct: purchased Reaction Biology Corporation
Outline: as §1

GRK3 = molecular target: T15, GRK3 (Homo sapiens, UniProt P35626); conditions: 500 nM; relative to DMSO; read-out: Residual enzymatic activity
T15 construct: purchased Reaction Biology Corporation
Outline: as §1

TESK1 = molecular target: T16, TESK1 (Homo sapiens, UniProt Q15569); conditions: 500 nM; relative to DMSO; read-out: Residual enzymatic activity
T16 construct: purchased Reaction Biology Corporation
Outline: as §1

TLK1 = molecular target: T17, TLK1 (Homo sapiens, UniProt Q9UKI8); conditions: 500 nM; relative to DMSO; read-out: Residual enzymatic activity
T17 construct: purchased Reaction Biology Corporation
Outline: as §1

PHKg2 = molecular target: T18, PHKg2 (Homo sapiens, UniProt P15735); conditions: 500 nM; relative to DMSO; read-out: Residual enzymatic activity
T18 construct: purchased Reaction Biology Corporation
Outline: as §1

NLK = molecular target: T19, NLK (Homo sapiens, UniProt Q9UBE8); conditions: 500 nM; relative to DMSO; read-out: Residual enzymatic activity
T19 construct: purchased Reaction Biology Corporation
Outline: as §1

JNK3 = molecular target: T20, JNK3 (Homo sapiens, UniProt P53779); conditions: 500 nM; relative to DMSO; read-out: Residual enzymatic activity
T20 construct: purchased Reaction Biology Corporation
Outline: as §1

ALK6/BMPR1B = molecular target: T21, ALK6/BMPR1B (Homo sapiens, UniProt O00238); conditions: 500 nM; relative to DMSO; read-out: Residual enzymatic activity
T21 construct: purchased Reaction Biology Corporation
Outline: as §1

p70S6K/RPS6KB1 = molecular target: T22, p70S6K/RPS6KB1 (Homo sapiens, UniProt P23443); conditions: 500 nM; relative to DMSO; read-out: Residual enzymatic activity
T22 construct: purchased Reaction Biology Corporation
Outline: as §1

PKCa = molecular target: T23, PKCa (Homo sapiens, UniProt P17252); conditions: 500 nM; relative to DMSO; read-out: Residual enzymatic activity
T23 construct: purchased Reaction Biology Corporation
Outline: as §1

MLCK/MYLK = molecular target: T24, MLCK/MYLK (Homo sapiens, UniProt Q15746); conditions: 500 nM; relative to DMSO; read-out: Residual enzymatic activity
T24 construct: purchased Reaction Biology Corporation
Outline: as §1

MLK2/MAP3K10 = molecular target: T25, MLK2/MAP3K10 (Homo sapiens, UniProt Q02779)
T25 construct: purchased Reaction Biology Corporation (assay service)
Outline: as §1

MST1/STK4 = molecular target: T26, MST1/STK4 (Homo sapiens, UniProt Q13043); conditions: 500 nM; relative to DMSO; read-out: Residual enzymatic activity
T26 construct: purchased Reaction Biology Corporation
Outline: as §1

MRCKa/CDC42BPA = molecular target: T27, MRCKa/CDC42BPA (Homo sapiens, UniProt Q5VT25); conditions: 500 nM; relative to DMSO; read-out: Residual enzymatic activity
T27 construct: purchased Reaction Biology Corporation
Outline: as §1

PKCb2 = molecular target: T28, PKCb2 (Homo sapiens, UniProt P05771); conditions: 500 nM; relative to DMSO; read-out: Residual enzymatic activity
T28 construct: purchased Reaction Biology Corporation
Outline: as §1

DMPK = molecular target: T29, DMPK (Homo sapiens, UniProt Q09013); conditions: 500 nM; relative to DMSO; read-out: Residual enzymatic activity
T29 construct: purchased Reaction Biology Corporation
Outline: as §1

CDK1/cyclin E = molecular target: T30, CDK1/cyclin E (Homo sapiens, UniProt P06493); conditions: 500 nM; relative to DMSO; read-out: Residual enzymatic activity
T30 construct: purchased Reaction Biology Corporation
Outline: as §1

ROCK2 = molecular target: T31, ROCK2 (Homo sapiens, UniProt O75116); conditions: 500 nM; relative to DMSO; read-out: Residual enzymatic activity
T31 construct: purchased Reaction Biology Corporation
Outline: as §1

STK38/NDR1 = molecular target: T32, STK38/NDR1 (Homo sapiens, UniProt Q15208); conditions: 500 nM; relative to DMSO; read-out: Residual enzymatic activity
T32 construct: purchased Reaction Biology Corporation
Outline: as §1

IKKb/IKBKB = molecular target: T33, IKKb/IKBKB (Homo sapiens, UniProt O14920); conditions: 500 nM; relative to DMSO; read-out: Residual enzymatic activity
T33 construct: purchased Reaction Biology Corporation
Outline: as §1

FGFR1 = molecular target: T34, FGFR1 (Homo sapiens, UniProt P11362); conditions: 500 nM; relative to DMSO
T34 construct: purchased Reaction Biology Corporation
Outline: as §1

PLK1 = molecular target: T35, PLK1 (Homo sapiens, UniProt P53350); conditions: 500 nM; relative to DMSO; read-out: Residual enzymatic activity
T35 construct: purchased Reaction Biology Corporation
Outline: as §1

MAPKAPK2 = molecular target: T36, MAPKAPK2 (Homo sapiens, UniProt P49137); conditions: 500 nM, relative to DMSO
T36 construct: purchased Reaction Biology Corporation
Outline: as §1

TGFBR2 = molecular target: T37, TGFBR2 (Homo sapiens, UniProt P37173); conditions: 500 nM; relative to DMSO; read-out: Residual enzymatic activity
T37 construct: purchased Reaction Biology Corporation
Outline: as §1

GRK1 = molecular target: T38, GRK1 (Homo sapiens, UniProt Q15835); conditions: 500 nM; relative to DMSO; read-out: Residual enzymatic activity
T38 construct: purchased Reaction Biology Corporation
Outline: as §1

ALK5/TGFBR1 = molecular target: T39, ALK5/TGFBR1 (Homo sapiens, UniProt P36897); conditions: 500 nM; relative to DMSO; read-out: Residual enzymatic activity
T39 construct: purchased Reaction Biology Corporation
Outline: as §1

[1] = read-out: Residual enzymatic activity
[2] = 500 nM, relative to DMSO, read-out: Residual enzymatic activity
[3] = 10-dose mode, threefold serial dilution from 10 μM

T25 sequence (Q02779 whole entry): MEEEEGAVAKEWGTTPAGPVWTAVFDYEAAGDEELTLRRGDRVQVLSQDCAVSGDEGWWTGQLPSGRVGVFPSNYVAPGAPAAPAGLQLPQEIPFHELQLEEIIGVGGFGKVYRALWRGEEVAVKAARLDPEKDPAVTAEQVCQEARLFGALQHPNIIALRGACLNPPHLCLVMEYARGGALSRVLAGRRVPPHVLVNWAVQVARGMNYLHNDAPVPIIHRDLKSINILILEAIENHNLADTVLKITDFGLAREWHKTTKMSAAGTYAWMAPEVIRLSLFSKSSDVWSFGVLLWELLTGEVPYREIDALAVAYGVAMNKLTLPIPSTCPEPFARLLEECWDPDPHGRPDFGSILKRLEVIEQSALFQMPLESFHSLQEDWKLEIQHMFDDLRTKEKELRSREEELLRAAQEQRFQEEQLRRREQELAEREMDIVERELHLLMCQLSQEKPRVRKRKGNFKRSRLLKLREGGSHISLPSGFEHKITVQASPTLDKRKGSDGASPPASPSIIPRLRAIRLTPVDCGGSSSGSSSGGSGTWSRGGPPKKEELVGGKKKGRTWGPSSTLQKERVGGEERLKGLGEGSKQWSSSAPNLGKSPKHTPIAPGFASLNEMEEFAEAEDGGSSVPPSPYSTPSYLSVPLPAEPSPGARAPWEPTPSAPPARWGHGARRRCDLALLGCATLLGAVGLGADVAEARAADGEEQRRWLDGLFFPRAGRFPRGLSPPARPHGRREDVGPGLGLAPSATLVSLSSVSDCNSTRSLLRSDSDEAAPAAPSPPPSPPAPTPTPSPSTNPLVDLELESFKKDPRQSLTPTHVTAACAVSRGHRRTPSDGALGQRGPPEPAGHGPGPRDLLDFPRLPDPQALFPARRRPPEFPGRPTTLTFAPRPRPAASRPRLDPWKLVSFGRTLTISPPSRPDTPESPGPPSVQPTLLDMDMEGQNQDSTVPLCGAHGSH
T9 sequence (P07948 1-491 isoform P07948-2): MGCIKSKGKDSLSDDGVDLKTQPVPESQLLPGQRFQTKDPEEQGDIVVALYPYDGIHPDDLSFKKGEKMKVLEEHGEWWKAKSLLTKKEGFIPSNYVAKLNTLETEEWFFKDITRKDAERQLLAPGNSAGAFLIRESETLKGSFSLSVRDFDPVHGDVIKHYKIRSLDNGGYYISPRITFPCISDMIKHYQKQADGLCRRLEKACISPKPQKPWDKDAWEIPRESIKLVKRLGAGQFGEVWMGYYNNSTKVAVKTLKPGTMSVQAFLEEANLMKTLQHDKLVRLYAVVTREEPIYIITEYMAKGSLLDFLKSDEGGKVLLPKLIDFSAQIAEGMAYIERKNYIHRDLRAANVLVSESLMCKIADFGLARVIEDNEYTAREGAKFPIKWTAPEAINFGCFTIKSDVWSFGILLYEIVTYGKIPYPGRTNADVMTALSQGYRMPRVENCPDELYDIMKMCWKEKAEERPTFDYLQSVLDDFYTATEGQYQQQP
T6 sequence (P54764 20-986): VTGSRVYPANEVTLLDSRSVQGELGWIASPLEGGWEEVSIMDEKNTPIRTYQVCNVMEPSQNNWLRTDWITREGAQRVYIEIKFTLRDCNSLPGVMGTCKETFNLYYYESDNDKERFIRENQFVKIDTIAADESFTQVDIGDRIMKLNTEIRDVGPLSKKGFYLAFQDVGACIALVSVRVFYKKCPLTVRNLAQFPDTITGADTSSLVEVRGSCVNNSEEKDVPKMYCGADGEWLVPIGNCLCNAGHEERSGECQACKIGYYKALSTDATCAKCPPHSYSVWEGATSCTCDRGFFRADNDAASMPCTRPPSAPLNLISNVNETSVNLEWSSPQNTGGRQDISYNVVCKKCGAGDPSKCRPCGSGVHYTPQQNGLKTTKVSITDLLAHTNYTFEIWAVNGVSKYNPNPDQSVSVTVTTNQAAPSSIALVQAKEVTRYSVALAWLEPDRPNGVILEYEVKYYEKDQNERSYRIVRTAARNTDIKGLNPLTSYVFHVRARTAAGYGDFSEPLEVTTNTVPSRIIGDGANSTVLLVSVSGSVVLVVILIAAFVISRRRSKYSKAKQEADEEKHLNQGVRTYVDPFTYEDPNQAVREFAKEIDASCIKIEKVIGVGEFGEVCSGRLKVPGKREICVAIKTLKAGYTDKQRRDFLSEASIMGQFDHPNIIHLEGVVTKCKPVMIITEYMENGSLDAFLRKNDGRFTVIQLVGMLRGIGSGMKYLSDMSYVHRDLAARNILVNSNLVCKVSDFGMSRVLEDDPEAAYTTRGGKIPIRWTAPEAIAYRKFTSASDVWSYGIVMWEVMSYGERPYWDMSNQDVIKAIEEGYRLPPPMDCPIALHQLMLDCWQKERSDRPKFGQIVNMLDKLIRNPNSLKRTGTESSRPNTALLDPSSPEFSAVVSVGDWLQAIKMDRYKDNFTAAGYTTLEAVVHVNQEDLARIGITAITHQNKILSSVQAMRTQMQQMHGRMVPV
T36 sequence (P49137 whole entry): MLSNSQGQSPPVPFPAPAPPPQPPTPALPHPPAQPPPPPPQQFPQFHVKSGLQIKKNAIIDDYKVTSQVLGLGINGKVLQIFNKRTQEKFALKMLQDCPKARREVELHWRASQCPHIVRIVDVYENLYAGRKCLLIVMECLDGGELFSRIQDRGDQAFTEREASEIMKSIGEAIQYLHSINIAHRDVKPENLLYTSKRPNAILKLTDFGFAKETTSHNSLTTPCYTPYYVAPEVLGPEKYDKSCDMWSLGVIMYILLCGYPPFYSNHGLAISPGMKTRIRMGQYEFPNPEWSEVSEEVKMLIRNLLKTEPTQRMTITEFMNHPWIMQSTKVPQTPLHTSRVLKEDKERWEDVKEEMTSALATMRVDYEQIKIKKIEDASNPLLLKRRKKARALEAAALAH
T24 sequence (Q15746 whole entry): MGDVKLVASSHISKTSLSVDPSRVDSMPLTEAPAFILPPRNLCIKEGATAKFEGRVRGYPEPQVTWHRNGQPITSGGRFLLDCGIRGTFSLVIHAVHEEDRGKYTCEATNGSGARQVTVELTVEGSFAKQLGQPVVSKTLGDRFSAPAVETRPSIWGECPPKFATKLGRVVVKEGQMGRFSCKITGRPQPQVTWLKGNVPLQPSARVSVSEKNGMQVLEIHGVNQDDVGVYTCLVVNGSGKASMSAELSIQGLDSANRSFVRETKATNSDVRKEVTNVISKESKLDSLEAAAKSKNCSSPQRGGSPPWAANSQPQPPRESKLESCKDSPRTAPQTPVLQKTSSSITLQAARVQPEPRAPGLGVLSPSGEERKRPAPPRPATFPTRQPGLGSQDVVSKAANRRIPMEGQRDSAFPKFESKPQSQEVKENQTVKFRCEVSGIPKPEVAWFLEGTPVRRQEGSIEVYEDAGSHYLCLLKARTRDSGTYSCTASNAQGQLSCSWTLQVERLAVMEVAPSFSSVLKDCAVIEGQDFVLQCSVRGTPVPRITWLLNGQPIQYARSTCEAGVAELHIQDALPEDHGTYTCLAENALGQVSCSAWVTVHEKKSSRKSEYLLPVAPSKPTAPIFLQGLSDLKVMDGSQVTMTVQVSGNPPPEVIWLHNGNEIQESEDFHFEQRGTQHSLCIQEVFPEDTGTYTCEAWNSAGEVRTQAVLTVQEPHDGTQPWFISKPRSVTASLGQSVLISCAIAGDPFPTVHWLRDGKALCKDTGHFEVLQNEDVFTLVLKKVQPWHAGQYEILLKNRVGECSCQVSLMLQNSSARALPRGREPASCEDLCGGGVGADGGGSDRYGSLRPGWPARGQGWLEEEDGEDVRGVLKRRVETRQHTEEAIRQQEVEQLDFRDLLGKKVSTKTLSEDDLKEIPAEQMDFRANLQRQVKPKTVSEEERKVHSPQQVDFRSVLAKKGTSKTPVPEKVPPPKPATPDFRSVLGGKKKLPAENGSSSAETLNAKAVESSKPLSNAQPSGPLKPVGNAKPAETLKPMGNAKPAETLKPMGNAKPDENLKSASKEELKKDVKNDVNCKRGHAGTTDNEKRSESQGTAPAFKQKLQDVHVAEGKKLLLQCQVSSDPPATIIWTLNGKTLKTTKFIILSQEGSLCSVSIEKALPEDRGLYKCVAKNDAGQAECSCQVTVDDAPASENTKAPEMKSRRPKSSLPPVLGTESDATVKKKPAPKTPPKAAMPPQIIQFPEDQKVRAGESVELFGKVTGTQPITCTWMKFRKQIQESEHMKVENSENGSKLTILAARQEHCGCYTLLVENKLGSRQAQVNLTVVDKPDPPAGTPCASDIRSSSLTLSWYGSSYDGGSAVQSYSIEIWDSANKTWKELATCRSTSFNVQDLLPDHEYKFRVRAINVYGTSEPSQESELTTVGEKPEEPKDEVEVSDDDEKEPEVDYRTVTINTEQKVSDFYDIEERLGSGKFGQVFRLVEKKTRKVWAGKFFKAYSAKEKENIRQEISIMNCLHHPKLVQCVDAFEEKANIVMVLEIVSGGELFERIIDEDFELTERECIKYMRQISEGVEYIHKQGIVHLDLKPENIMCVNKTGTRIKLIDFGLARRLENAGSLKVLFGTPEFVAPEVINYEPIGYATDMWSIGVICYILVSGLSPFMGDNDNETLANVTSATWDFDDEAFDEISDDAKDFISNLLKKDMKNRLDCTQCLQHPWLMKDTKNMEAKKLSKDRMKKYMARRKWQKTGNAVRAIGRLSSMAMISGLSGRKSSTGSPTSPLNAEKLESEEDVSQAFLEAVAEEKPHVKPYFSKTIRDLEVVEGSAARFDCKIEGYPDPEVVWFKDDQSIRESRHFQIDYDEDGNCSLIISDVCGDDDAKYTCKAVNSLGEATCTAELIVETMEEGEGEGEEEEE

COc1cc(Nc2ncnc(Nc3cc4c(cn3)NC(=O)C(C)(C)O4)n2)cc(OC)c1OC [MT-SYK-03]
remaining activity at 0.5 µM (SRPK2): 104%
remaining activity at 0.5 µM (CDK1/cyclin A): 110%
remaining activity at 0.5 µM (STK32B/YANK2): 103%
remaining activity at 0.5 µM (NEK3): 72%
remaining activity at 0.5 µM (TAOK1): 102%
Residual enzymatic activity (EPHA4): 58.1%
remaining activity at 0.5 µM (EPHA4; [1]): > 54%
remaining activity at 0.5 µM (STK25/YSK1): 105%
remaining activity at 0.5 µM (PASK): 102%
remaining activity at 0.5 µM (LYN B; [2]): 25.7%
pIC50 (LYN B; [3]): 7.85
remaining activity at 0.5 µM (RSK4): 99.7%
remaining activity at 0.5 µM (NEK4): 109%
remaining activity at 0.5 µM (TRKA): 82.5%
remaining activity at 0.5 µM (PDK1/PDPK1): 85.5%
remaining activity at 0.5 µM (ULK1): 62.2%
remaining activity at 0.5 µM (GRK3): 103%
remaining activity at 0.5 µM (TESK1): 94.5%
remaining activity at 0.5 µM (TLK1): 101%
remaining activity at 0.5 µM (PHKg2): 102%
remaining activity at 0.5 µM (NLK): 94.9%
remaining activity at 0.5 µM (JNK3): 96.4%
remaining activity at 0.5 µM (ALK6/BMPR1B): 143%
remaining activity at 0.5 µM (p70S6K/RPS6KB1): 98.3%
remaining activity at 0.5 µM (PKCa): 92.3%
remaining activity at 0.5 µM (MLCK/MYLK): 96.2%
remaining activity at 0.5 µM (MLK2/MAP3K10; [2]): 7.5%
pIC50 (MLK2/MAP3K10; [3]): 8.37
inhibition at 0.5 µM (MLK2/MAP3K10; read-out: Inhibition at 500 nM): > 90%
remaining activity at 0.5 µM (MST1/STK4): 94.2%
remaining activity at 0.5 µM (MRCKa/CDC42BPA): 102%
remaining activity at 0.5 µM (PKCb2): 87.7%
remaining activity at 0.5 µM (DMPK): 94.3%
remaining activity at 0.5 µM (CDK1/cyclin E): 94.6%
remaining activity at 0.5 µM (ROCK2): 91.1%
remaining activity at 0.5 µM (STK38/NDR1): 112%
remaining activity at 0.5 µM (IKKb/IKBKB): 94%
Residual enzymatic activity (FGFR1): 77.5%
remaining activity at 0.5 µM (PLK1): 93.4%
Residual enzymatic activity (MAPKAPK2): did not inhibit any
remaining activity at 0.5 µM (MAPKAPK2; [1]): 101%
remaining activity at 0.5 µM (TGFBR2): 116%
remaining activity at 0.5 µM (GRK1): 105%
remaining activity at 0.5 µM (ALK5/TGFBR1): 104%

Source: publication PMC8632988, “Inhibition of SYK and cSrc kinases can protect bone and cartilage in preclinical models of osteoarthritis and rheumatoid arthritis” (Scientific Reports, 2021)
